The values that follow come from patent publication US8592374B2, “Neurotrophic peptides” (Research Foundation for Mental Hygiene, Inc., priority 2007, dated 2013).

One experiment deals with normal adult mice. Kind of experiment: Morris Water Maze task, CNTF 6a / CNTF 6c pellets 30 days. Type of experiment: in vivo. The protocol: For behavioral studies, performance on the Morris Water Maze task was assessed in three groups of 10 mice each (placebo, CNTF6a and CNTF6c) which received peptide treatment for 30 days. To avoid daily stress due to injections, all animals undergoing behavioral studies received subcutaneous implants of CNTF 6a, CNTF 6c or placebo pellets as described above.
All animals for behavioral testing were coded such that the experimentator was blind to the assignment of the animals to specific treatment groups. The Morris Water Maze procedure was performed using a 110 cm diameter circular tank. Before training, the mice were handled gently for 2-3 min/day during 3 days to minimize non-specific stress. Acquisition was started with the submerged (invisible) escape platform in the North-East quadrant and each animal was given 60 sec to find the submerged escape platform. […] Five such acquisition trials were given on each day, for four consecutive days. A test for retention, or probe trial, was given 24 hours later. During the probe trial the mouse was allowed to swim in the tank without the escape platform for 60 seconds. This was followed by second and third probe trials 15 and 30 days from the first probe trial. Each probe trial was immediately followed by a “retraining session” consisting of 5 trials/animal to consolidate learned behavior.
The measures of learning were the time and distance swum to reach the escape platform. For retention during the probe trial, the tank was divided into four imaginary quadrants and a small zone where the escape platform had been (virtual platform). The measures of retention were the percent of time spent and the percent of distance swum in each quadrant, and the number of entries into the platform zone.
Mouse behavior in the Morris Water Maze was monitored by a Samsung Digital Camera (SDC 4304) mounted to the ceiling and tracked and timed by a SMART (Pan Lab/San Diego Instruments) version 2.0.14 software.
Since normal adult mice were used as experimental animals, it was crucial not to miss any effect on memory acquisition and learning that the 30-day peptide treatment might have had. Therefore, a partial training paradigm was used to evaluate learning and memory in the Morris Water Maze. Treated mice were trained on the Morris Water Maze for a total of 20 sessions spanning 4 days after which they were subjected to the first probe trial (P1). Two additional probe trials (P2 and P3) were administered 15 and 30 days after P1. […] Learning was evaluated in terms of latency and distance traveled to reach the invisible escape platform. Retention was measured on probe trials by the percent of time and travel distance in the target quadrant, and the number of crossings of the virtual platform.

Another experiment relates to GCL of the dentate gyrus. The experiment is described as follows: MAP2 and synaptophysin expression in the GCL (mean pixel intensity), Example 4. Type of experiment: in vivo, mice. The note with it: 30-day treatment. The text has this: The following primary antibodies were used for immunohistochemistry: anti-BrdU (1:400; Accurate) a rat monoclonal raised against BrdU; anti-DCX (1:200; Santa Cruz Biotechnology Inc.), a goat polyclonal antibody raised against an 18-amino acid peptide representing residues 384-410 of human doublecortin; anti-NeuN (1:500; Chemicon), a mouse monoclonal antibody raised against purified cell nuclei from mouse brain; Anti-c-Fos (Ab-5) (1:500; Calbiochem), a rabbit polyclonal antibody raised against a synthetic peptide corresponding to amino-acids 4-17 of human c-Fos; SMI52 (1:1000; Sternberger Monoclonals), a mouse monoclonal antibody specific for the mature neuronal marker MAP2a,b; anti-synaptophysin, SYN (1:200; Chemicon), a mouse monoclonal antibody raised against vesicular fraction of bovine brain. […]
For MAP2 and Synaptophysin IR, the entire area of GCL was outlined on every 10th section. Maximum projection images were then generated based on confocal z-stacks, and the antibody staining was quantitated by measuring mean pixel intensity (MPI) with the help of Image-Pro Plus 5.0 software (Media Cybernetics).

Experiment [1] concerns neural progenitor cells of the dentate gyrus. The experiment is described as follows: Stereological counts of BrdU-IR cells in subregions of the hippocampus, 30-day pellets. Type of experiment: in vivo, mice. The protocol: All in vivo studies for characterization of peptides (stereology and behavioral analysis) were performed on 8-10-month-old female retired breeders of C57Bl6 background. The animals were acclimatized for at least 3 weeks to exclude occasional pregnant mice from the studies. Mice were group-housed (3 animals per cage) with a 12:12 light:dark cycle and with free access to food and water. All procedures were conducted in accordance with approved protocols from our institutional Animal Welfare Committee.
(§1) To study neurogenesis, mice received subcutaneous implants of extended release depot pellets containing either CNTF peptides 6a or 6c for 30 days of continuous dosing (Innovative Research of America, Sarasota, Fla.). For control groups, the pellets consisted of the carrier biopolymer only. For implantation, the mice were anesthetized with 2.5% Avertin (0.38 ml for a 25 g animal). Under sterile conditions, the pellets were then subcutaneously implanted along the anterolateral aspect of the right shoulder with a precision trochar (Innovative Research of America). The animals were then transferred to the animal colony after recovery from anesthesia. There were no complications associated with the implantation and treatment. BrdU was given as two daily i.p. injections (100 mg/kg/dose) for five days starting on day 2 of peptide treatment. Neurogenesis was assessed in the dentate gyrus (DG) by counting the number of BrdU-immunoreactive (BrdU-IR), BrdU-DCX-IR and BrdU-NeuN-IR cells in various layers of the DG. Employing principles of unbiased stereology, the optical fractionator method was used to estimate cell counts for the DG.
At the end of treatment, all animals were anesthetized with an overdose of sodium pentobarbital and transcardially perfused with 0.1 M PBS. After perfusion, the brains were removed from the skull, the left hemisphere was immediately frozen for future biochemical analysis and the right hemisphere was fixed in 4% paraformaldehyde in 0.1 M PBS for at least 24 hours at room temperature. Tissues were then stored in 30% sucrose solutions at 4° C. until sectioning. The brains were sectioned sagittaly on a freezing sliding microtome at […] through the entire hippocampus and the sections were stored in glycol anti-freeze solution (Ethylene glycol, glycerol and 0.1 M PBS in 3:3:4 ratio) at −20° C. till further processing.
(§2) Immunohistochemistry was performed as described elsewhere (Kuhn et al., J. Neurosci 17 (15) (1997): 5820-5829). Briefly, every 5th brain section was chosen for quantification of cell number and every 10th section was chosen for staining intensity scanning. Immunohistochemistry was performed on free floating sections. For BrdU immunohistochemistry, epitope retrieval and staining were performed as previously described (Kuhn et al., J. Neurosci 17 (15) (1997): 5820-5829).
Neurogenesis was assessed in the DG by counting the number of BrdU-immunoreactive (BrdU-IR), BrdU-DCX-IR and BrdU-NeuN-IR cells in various layers of the DG. The granule cell layer (GCL) was subdivided into an inner and outer half (iGCL and oGCL). The iGCL consisted of the subgranular zone (SGZ, defined as a 2-3 nuclei thick layer bordering the GCL) and the inner half of the GCL adjacent to the Hilus (Hil); the outer GCL (oGCL) was defined as the half of the GCL adjacent to the Molecular layer (Mol). A cell in the middle of the GCL was considered part of the iGCL and a cell bordering the GCL in the Mol was included in oGCL counts. […] Hil included the superficial polymorphic layer.
All sections were collected using the random uniform sampling scheme. For BrdU-IR cells, counting was performed on every 5th section using 40× oil objective of a Nikon 90i fluorescent microscope equipped with Nikon C1 three laser confocal system and a Nikon DS U1 digital camera. Employing principles of unbiased stereology, the optical fractionator method was used to estimate cell counts for the DG (West et al., Anat Rec 231 (1991): 482-497). […]

Experiment [2] deals with granule cell layer of the dentate gyrus. The experiment is described as follows: Stereological counts of DCX-, BrdU-NeuN- and c-Fos-NeuN-IR cells in the granule cell layer. Type of experiment: in vivo, mice. The protocol: as §1
The following primary antibodies were used for immunohistochemistry: anti-BrdU (1:400; Accurate) a rat monoclonal raised against BrdU; anti-DCX (1:200; Santa Cruz Biotechnology Inc.), a goat polyclonal antibody raised against an 18-amino acid peptide representing residues […] of human doublecortin; anti-NeuN (1:500; Chemicon), a mouse monoclonal antibody raised against purified cell nuclei from mouse brain; Anti-c-Fos (Ab-5) (1:500; Calbiochem), a rabbit polyclonal antibody raised against a synthetic peptide corresponding to amino-acids 4-17 of human c-Fos; SMI52 (1:1000; Sternberger Monoclonals), a mouse monoclonal antibody specific for the mature neuronal marker MAP2a,b; anti-synaptophysin, SYN (1:200; Chemicon), a mouse monoclonal antibody raised against vesicular fraction of bovine brain. The following secondary antibodies were used: Alexa 488-conjugated goat anti-mouse IgG antibody and Alexa 594-conjugated goat anti-rabbit or anti-rat IgG antibody (Molecular Probes); biotinylated anti-rat IgG antibody and Cy5-conjugated goat anti-mouse antibody (Jackson ImmunoResearch).
as §2
For BrdU-DCX-, BrdU-NeuN-, and c-Fos-NeuN-IR cells, only GCL (consisting of iGCL and oGLC described above) was counted using 100× oil objective in every 10th section. To ensure objectivity, z-stacks were collected for each double IR cell and analyzed later by generating maximum projection and 3D constructs.

The mark [3] stands for this setting: 30-day pellets, 50 nmol/peptide/animal/day.
Setting [4] is: 30-day treated mice (n = 5/group).

For the substance Ac-DGGL-NH2 [CNTF 6c], the “learning in the spatial reference memory task (swim latencies)” value in the experiment on normal adult mice (30-day pellets, 20 training sessions over 4 days) is “no effect”. For the same substance, the “percent time spent in the target quadrant across three probe trials” value in the experiment with normal adult mice (P1, P2, P3) is on record as “spent the same percent amount of time in the target quadrant”. Further, in the experiment with GCL of the dentate gyrus, the “increase of MAP2 expression in the GCL (mean-pixel intensity)” value came out at 31% and the “increase of synaptophysin expression in the GCL (mean-pixel intensity)” value was found to be 26%. Moreover, in experiment [1] (30-day pellets), the “BrdU-IR cells in oGCL, Mol or Hil compared to control” value was “no significant differences”. Besides, in experiment [1] (setting [3]), the “increase of BrdU-IR cell counts in the GCL compared to placebo” value was 31% and the “increase of number of BrdU-IR cells in the iGCL compared to control” value came to 45%. In experiment [1] (setting [4]), the “Stereological counts (±SEM) of BrdU-IR cells, GCL” value came to 560 ± 24; the “Stereological counts (±SEM) of BrdU-IR cells, Hil” value was 121 ± 16; the “Stereological counts (±SEM) of BrdU-IR cells, Mol” value is listed as 487 ± 28; the “Stereological counts (±SEM) of BrdU-IR cells, iGCL” value worked out at 486 ± 31. Besides, the “Stereological counts (±SEM) of BrdU-IR cells, oGCL” value in experiment [1] (setting [4]) is 74 ± 10. In experiment [2] (setting [4]), the “Stereological counts (±SEM) of cells expressing DCX in the granule cell layer” value was 656 ± 43 and the “Stereological counts (±SEM), NeuN-BrdU/BrdU in the granule cell layer” value was found to be 39 ± 2. Moreover, the “Stereological counts (±SEM) of c-fos-NeuN cells in the granule cell layer” value in experiment [2] (30-day treated mice (n = 5/group), basal activity) amounted to 247 ± 23. Further, in experiment [2] (30-day treatment), the “increase in BrdU-NeuN-IR cells in the GCL compared with placebo” value came to 62% and the “increase of DCX-IR cells in the GCL compared to placebo” value was about 91%. In addition, the “increase in number of mature neurons (NeuN-IR) co-expressing c-fos in the GCL” value in experiment [2] (30-day treatment, without behavioral stimulation) was about 47%.
